From patent US20100056516A1 (priority 2006, published 2010)
Like-named read-outs stand apart in the source and are kept apart here.

Key:
HXB2 virus = assay: microbe, parasite or virus in culture; assay type: cell-based, HIV
Procedure, shortened: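 Single-cycle infectivity assay in HeLa P4-2 cells measuring inhibition of acute HIV infection, using HXB2 virus.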

HeLa P4-2 cell line = settings: human
Excerpt: The HeLa P4-2 cell line used in the single cycle HIV infectivity Assay B of Example 270 was also used to determine compound cytotoxicity in the absence of viral infection.

[1] = target: HIV-1 reverse transcriptase (RNase H) (Human immunodeficiency virus type 1 group M subtype B, UniProt P04585); assay: ASH assay: RNase H mediated RNA cleavage (ECL format, BioVeris M384); assay type: biochemical
Experimental: Potency of a substance as an RNase H inhibitors can be determined by measuring its ability prevent RNase H catalyzed cleavage of the RNA strand in a RNA/DNA hybrid duplex substrate. RNase H activity is measured using a substrate generated by annealing the oligoribo-nucleotide 5′-rCrCrUrCrUrCrArArArArArCrArGrGrArGrCrArGrArArArGrArCrArArG (SEQ ID NO:1) to the oligodeoxyribonucleotide 5′-Biotin-[…] (SEQ ID NO:2). […] (SEQ ID NO:3). The resulting double-stranded duplex DNA product is quantitated in an ALPHA screen format using [streptavidin- and anti-fluorescein-coated beads (Packard Bioscience) following the manufacturer's guidelines and reading on a Fusion AlphaScreen instrument. Alternatively, the released 5′-Biotinylated DNA is annealed to a complementary oligodeoxyribonucleotide: 5′-ruthenium-[…] (SEQ ID NO:3). The resulting double-stranded duplex DNA product is quantitated in an ECL screen format using Dynabeads M280 coated with streptavidin (BioVeris Corporation) following the manufacturer's guidelines and reading on a BioVeris M384 Analyzer.

HIV integrase = HIV integrase (Human immunodeficiency virus type 1 group M subtype B, UniProt P04585); assay: integrase strand transfer assay (STA); assay type: biochemical
[2] = Human immunodeficiency virus 1, HXB2, HeLaP4-2, read-out: SCIA-B (IC50, μM)
[3] = Human immunodeficiency virus 1, HXB2, HeLaP4-2, read-out: antiviral IC50 (SCIA-B)
[4] = IC50 in the STA assay, integrase strand transfer
[5] = STA (IC50, μM), integrase strand-transfer assay, Example 269
[6] = RNase H mediated RNA cleavage assay, Example 269, read-out: ASH (IC50)
[7] = integrase strand transfer, read-out: IC50 in the STA assay
[8] = integrase strand-transfer assay, Example 269, read-out: STA (IC50)

Structure (SMILES)	IC50 (HXB2 virus; [2]) [µM]	IC50 (HXB2 virus; [3]) [µM]	Cytotoxicity (LD50, μM) (HeLa P4-2 cell line) [µM]	IC50 [1] [nM]	IC50 (HIV integrase; [4]) [µM]	IC50 (HIV integrase; [5]) [µM]	IC50 [1, 6] [nM]	IC50 (HIV integrase; [7]) [µM]	IC50 (HIV integrase; [8]) [µM]
COc1ccc(CNc2cc(=O)n(O)c3ncccc23)cc1 [Example 140, 1-hydroxy-4-[(4-methoxybenzyl)amino]-1,8-naphthyridin-2(1H-one)]	0.09	< 100	5	110	< 50	0.22			
COc1ccccc1CNc1cc(=O)n(O)c2ncccc12 [Example 142, 1-hydroxy-4-[(2-methoxybenzyl)amino]-1,8-naphthyridin-2(1H-one)]	0.09	< 100	4.4	84	< 50	0.56			
O=c1cc(Nc2ccccc2N2CCOCC2)c2cccnc2n1O [Example 147, 1-hydroxy-4-{[2-(4-morpholinyl)phenyl]amino}-1,8-naphthyridin-2(1H-one)]	0.2	< 100	7.7	17	< 50	0.22			
O=c1cc(NCc2ccccn2)c2cccnc2n1O [Example 149, 1-hydroxy-4-[(2-pyridinylmethyl)amino]-1,8-naphthyridin-2(1H-one)]	0.06	< 100	5.2	140	< 50	0.7			
CN1CCN(Cc2cccc(CNc3cc(=O)n(O)c4ncccc34)c2)CC1 [Example 150, 1-hydroxy-4-({3-[(4-methyl-1-piperazinyl)methyl]benzyl}amino)-1,8-naphthyridin-2(1H-one)]	0.07	< 100	14	150	< 50	1.7			
O=c1cc(NCc2cccc(CN3CCOCC3)c2)c2cccnc2n1O [Example 151, 1-hydroxy-4-{[3-(4-morpholinylmethyl)benzyl]amino}-1,8-naphthyridin-2(1H-one)]	0.13	< 100	15	160	< 50	0.23			
O=c1cc(NC2CCN(c3ccccc3)CC2)c2cccnc2n1O [Example 154, 1-hydroxy-4-[(1-phenyl-4-piperidinyl)amino]-1,8-naphthyridin-2(1H-one)]	0.27	< 100	7.2	200	< 50	1.7			
CN(C)CCC(Nc1cc(=O)n(O)c2ncccc12)c1ccccc1 (stereo not drawn) [Example 158, 4-{[3-(dimethylamino)-1-phenylpropyl]amino}-10hydroxy-1,8-naphthyridin-2(1H-one)]	0.24	< 100	16	360	< 50	6.5			
NCc1ccccc1CNc1cc(=O)n(O)c2ncccc12 [Example 163, 4-{[2-(aminomethyl)benzyl]amino}-1-hydroxy-1,8-naphthyridin-2 (1H-one)]	0.14	< 100	50	180	> 50	> 50			
NCc1cccc(-c2cc(=O)n(O)c3ncccc23)c1 [Example 172, 4-[3-(aminomethyl)phenyl]-1-hydroxy-1,8-naphthyridin-2(1H)-one]	0.26	< 100	5.5	140	< 50	0.22			
CCOC(=O)c1c(O)c2c(-c3cccc(CN(C)C)c3)ccnc2n(O)c1=O [Example 230, ethyl 5-{3-[(dimethylamino)methyl]phenyl}-1,4-dihydroxy-2-oxo-1,2-dihydro-1,8-naphthyridine-3-carboxylate]	0.77	< 100	>100				110	< 50	2.3
NCc1cccc(-c2cccc(Cc3cc(=O)n(O)c4ncccc34)c2)c1 [Example 231, 4-{[3′-(aminomethyl)biphenyl-3-yl]methyl}-1-hydroxy-1,8-naphthyridin-2(1 H)-one]	0.29	< 100	10				340	< 50	1.1
NCc1ccc(-c2ccc(Cc3cc(=O)n(O)c4ncccc34)cc2)cc1 [Example 235, 4-{[4′-(aminomethyl)biphenyl-4-yl]methyl}-1-hydroxy-1,8-naphthyridin-2(1H)-one]	0.13	< 100	7.8	46	> 50	> 50			
O=c1cc(Cc2ccc(CCc3ccc(F)cc3F)cc2)c2cccnc2n1O [Example 236, 4-{4-[2-(2,4-difluorophenyl)ethyl]benzyl}-1-hydroxy-1,8-naphthyridin-2(1H)-one]	0.26	< 100	21	120	< 50	0.05			
CCOC(=O)c1ccnc2c1c(-c1ccc(-c3ccc(CN)cc3)cc1)cc(=O)n2O [Example 241, Ethyl 5-[4′-(aminomethyl)biphenyl-4-yl]-8-hydroxy-7-oxo-7,8-dihydro-1,8-naphthyridine-4-carboxylate]	0.32	< 100	3.8				290	< 50	6.2
NCc1ccc(-c2ccc(-c3c(-c4ccccc4)c(=O)n(O)c4ncc(F)cc34)cc2)cc1 [Example 242, 4-[4′-(aminomethyl)biphenyl-4-yl]-6-fluoro-1-hydroxy-3-phenyl-1,8-naphthyridin-2-(1H)-one]	0.25	< 100	310	180	< 50	7.4			
O=c1cc(N2CCc3ccc(-c4cccnc4)cc3C2)c2cccnc2n1O [Example 255, 1-hydroxy-4-(7-pyridin-3-yl-3,4-dihydroisoquino1in-2(1H)-yl)-1,8-naphthyridin-2(1H)-one]	0.17	< 100	5.1	120	< 50	1.8			
NCc1ccc(-c2ccc3c(c2)CN(c2cc(=O)n(O)c4ncccc24)C3)cc1 [Example 257, 4-{5-[4-(aminomethyl)phenyl]-1,3-dihydro-2H-isoindol-2-yl}-1-hydroxy-1,8-naphthyridin-2(1H)-one]	0.35	< 100	49	33	< 50	46			
